Consider two compounds from patent US4077981A, “Certain 1-alkyl-2-dichlorophenyliminopyrrolidines” (Bayer Aktiengesellschaft, priority 1968, dated 1978).

Like-named read-outs stand apart in the source and are kept apart here.

Data set [1] can be described thus: Toxicity on the mouse. Particulars: in vivo, read-out: Toxicity (highest survived dose). On the procedure: The toxicity determined on the mouse is: orally, 500 mg/kg; subcutaneously,500 mg/kg (highest survived doses).
In data set [2] the test system is Boophilus microplus, Biarra strain. Put plainly: In-vivo test against ticks on cattle. Also noted: species or system Boophilus microplus (on cattle). On the procedure:
In-vivo test against ticks on cattle
3 parts of the particular active compound are mixed with 7 parts of a mixture of equal parts by weight of ethyleneglycol monomethyl ether and nonylphenyl polyglycol ether. The emulsion concentrate so obtained is diluted with water to the application concentration desired in each case.
Cattle which have been infected (12 times at intervals of 2 days) with resistant larvae of ticks of the species Boophilus microplus, Biarra strain, are sprayed on the 24th day after the first infection with the preparation of the given active compound so obtained.
The effect of the preparation of the given active compound is determined by ascertaining the number of adult female ticks which have reached development on the treated cattle and later lay viable eggs. This number is compared with the number of adult femal ticks which have reached development on untreated cattle.
As a measure of the intensity of the infestation before treatment, there is used the number of adult females which reach development in the case of the treated and untreated animals in the last three days before the time of treatment.

Data set [3] deals with Boophilus microplus, normally sensitive strain. Put plainly: In-vitro test for ovicidal effect on ticks (normally sensitive strain). The conditions noted are these: Rhipicephalus microplus, 840 h, after 35 days, read-out: Inhibition of egg depositing. On the procedure: (§1) In-vitro Test for Ovicidal Effect on Ticks
(§2) 3 g of the particular active compound are mixed with 7 g of a mixture of equal parts by weight of ethyleneglycol monomethyl ether and nonylphenyl polyglycol ether. The emulsion concentrate so obtained is diluted with water to the application concentration desired in each case.
(§3) Adult, fully engorged female ticks of the species Boophilus microplus (resistant) are immersed for 1 minute in this preparation of the given active compound. After immersion of, in each case, 10 female specimens of the various strains of ticks, the individual ticks are transferred to plastic dishes, the bottom of each of which is covered with a disc of filter paper. As a control, similar ticks of a normally sensitive strain are treated in exactly the same manner.
(§4) After 35 days, the effectiveness of the preparation of the given active compound is determined by ascertaining the inhibition of the depositing of fertile eggs compared with the egg depositing of untreated control ticks. The effect is stated in %, 100% meaning that fertile eggs ceased to be deposited, and 0% signifying that the ticks have deposited eggs in normal manner like the untreated control ticks.

The test system of data set [4] is Boophilus microplus, Ridgeland strain (resistant). As to the kind of experiment: In-vitro test for ovicidal effect on ticks (Ridgeland strain). Particulars: Rhipicephalus microplus, 840 h, Ridgeland strain, resistant, after 35 days, read-out: Inhibition of egg depositing. On the procedure:
as §1, §2, §3, §4

Data set [5] relates to Boophilus microplus, Biarra strain (resistant). As to the kind of experiment: In-vitro test for ovicidal effect on ticks (Biarra strain). Particulars: Rhipicephalus microplus, 840 h, resistant, after 35 days, read-out: Inhibition of egg depositing. As to the method: as §1
The emulsion concentrate so obtained is diluted with water to the application concentration desired in each case.
After immersion of, in each case, 10 female specimens of the various strains of ticks, the individual ticks are transferred to plastic dishes, the bottom of each of which is covered with a disc of filter paper.

Take `C=CCN1CCCC1=Nc1ccc(Cl)cc1Cl` [Example 6, 1-(α-allyl)-2-(2',4'-dichloro-phenylimino)-pyrrolidine]: the MTD in data set [1] (po, orally) is 500 mg/kg; in data set [1] (sc, subcutaneously), 500 mg/kg.

`CN1CCCC1=Nc1ccc(Cl)cc1Cl` [l1, 1-methyl-2-(2',4'-dichloro-phenylimino)-pyrrolidine]: the “Number of female adult ticks which reach development on the cattle” value in data set [2] (0.3%, days after treatment +4+5+6) is 1; in data set [2] (0.3%, days after treatment +7+8+9), 119; in data set [2] (0.4%, days after treatment +7+8+9), 72; in data set [2] (0.5%, days after treatment +7+8+9) it was 1; in data set [2] (0.5%, days after treatment +10+11+12), 7; in data set [2] (0.5%, days after treatment +13+14+15), 3. The “Number of female adult ticks which reach development on the cattle” value in data set [2] (0.5%, days after treatment +16+17+18) worked out at 1. Further, the “Total number of female adult ticks which reach development on the cattle” value in data set [2] (0.5%, total 1-21 days) is reported as 12. Further, the inhibition at 0.01 % strength in data set [3] (0.01% active compound), in data set [4] (0.01% active compound) and in data set [5] (0.01% active compound) was 0% each time. In addition, the inhibition at 0.03 % strength in data set [3] (0.03% active compound), in data set [4] (0.03% active compound) and in data set [5] (0.03% active compound) was above 50% in each case. The inhibition at 0.1 % strength in data set [3] (0.1% active compound), in data set [4] (0.1% active compound) and in data set [5] (0.1% active compound) was 100% each time. The inhibition at 0.3 % strength in data set [3] (0.3% active compound), in data set [4] (0.3% active compound) and in data set [5] (0.3% active compound) was 100% each time. In addition, the inhibition at 1 % strength in data set [3] (1.0% active compound), in data set [4] (1.0% active compound) and in data set [5] (1.0% active compound) was 100% each time.

Broadly, the inhibition is the change of the read-out against control, counted positive when it falls.
